Reference: US4229204A, “Trifluoromethylphenyl isoxazolyl benzoates” (Monsanto Company, priority 1978, dated 1980)

Assays:
Assay type in all cases: in vivo
[1] = tested on: Cocklebur; assay: Pre-emergent herbicidal test; further: ranges in brackets are in %
Procedure, shortened: (§1)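 Percent injury per species, scored on a fixed rating scale, was recorded after pre-emergent treatment. Planted seeds or propagules sat beneath a cover layer of soil mixed with a known amount of test compound.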

[2] = tested on: Canada Thistle; assay: Pre-emergent herbicidal test; conditions: 2 WAT, 11.2 kg/h; further: ranges in brackets are in %
Procedure, shortened: as §1

[3] = tested on: Smartweed; assay: Pre-emergent herbicidal test; further: ranges in brackets are in %
Procedure, shortened: as §1

[4] = tested on: Velvetleaf; assay: Pre-emergent herbicidal test; further: ranges in brackets are in %
Procedure, shortened: as §1

[5] = tested on: Quackgrass; assay: Pre-emergent herbicidal test; conditions: 2 WAT, 11.2 kg/h; further: ranges in brackets are in %
Procedure, shortened: as §1

[6] = tested on: Barnyardgrass; assay: Pre-emergent herbicidal test; further: ranges in brackets are in %
Procedure, shortened: as §1

[7] = tested on: Downy Brome; assay: Pre-emergent herbicidal test; further: ranges in brackets are in %
Procedure, shortened: as §1

[8] = tested on: Yellow Nutsedge; assay: Pre-emergent herbicidal test; conditions: 2 WAT, 11.2 kg/h; further: ranges in brackets are in %
Procedure, shortened: as §1

[9] = tested on: Morningglory; assay: Pre-emergent herbicidal test; further: ranges in brackets are in %
Procedure, shortened: as §1

[10] = tested on: Johnsongrass; assay: Pre-emergent herbicidal test; conditions: 2 WAT, 11.2 kg/h; further: ranges in brackets are in %
Procedure, shortened: as §1

[11] = tested on: Lambsquarters; assay: Pre-emergent herbicidal test; further: ranges in brackets are in %
Procedure, shortened: as §1

[12] = tested on: Bluebell rice; assay: Growth regulation of rice; conditions: four-week old rice, 250 ppm, both at 3 weeks and 7 weeks after treatment
Source text: The compound of Example Number 3 was applied to four-week old Bluebell rice at a rate of 250 ppm.

[13] = tested on: Cocklebur; assay: Post-emergent herbicidal test; further: ranges in brackets are in %
Procedure, shortened: (§2)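 Two- to three-week-old plants were sprayed post-emergence with a solution or wettable powder suspension of the active ingredient at the desired test rate, with a surfactant added to the spray.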

[14] = tested on: Canada Thistle; assay: Post-emergent herbicidal test; conditions: 4 WAT, 11.2 kg/h; further: ranges in brackets are in %
Procedure, shortened: as §2

[15] = tested on: Smartweed; assay: Post-emergent herbicidal test; further: ranges in brackets are in %
Procedure, shortened: as §2

[16] = tested on: Velvetleaf; assay: Post-emergent herbicidal test; further: ranges in brackets are in %
Procedure, shortened: as §2

[17] = tested on: Quackgrass; assay: Post-emergent herbicidal test; conditions: 4 WAT, 11.2 kg/h; further: ranges in brackets are in %
Procedure, shortened: as §2

[18] = tested on: Barnyardgrass; assay: Post-emergent herbicidal test; further: ranges in brackets are in %
Procedure, shortened: as §2

[19] = tested on: Downy Brome; assay: Post-emergent herbicidal test; further: ranges in brackets are in %
Procedure, shortened: as §2

[20] = tested on: Yellow Nutsedge; assay: Post-emergent herbicidal test; conditions: 4 WAT, 11.2 kg/h; further: ranges in brackets are in %
Procedure, shortened: as §2

[21] = tested on: Morningglory; assay: Post-emergent herbicidal test; further: ranges in brackets are in %
Procedure, shortened: as §2

[22] = tested on: Johnsongrass; assay: Post-emergent herbicidal test; conditions: 4 WAT, 11.2 kg/h; further: ranges in brackets are in %
Procedure, shortened: as §2

[23] = tested on: Lambsquarters; assay: Post-emergent herbicidal test; further: ranges in brackets are in %
Procedure, shortened: as §2

[24] = tested on: cheyenne wheat; assay: Growth regulation of wheat (Table XI)
Source text: Table XI summarizes observations made when the compound of Example Number 3 was applied to cheyenne wheat.

[25] = tested on: mixture of Kentucky Bluegrass, Creeping Red Fescue and Chewings Fescue; assay: Growth regulation of lawn grasses (Table VIII)
Description: The compound of Example Number 3 was tested on various lawn grasses as follows. A mixture of Kentucky Bluegrass, Creeping Red Fescue and Chewings Fescue were planted in a good grade of top soil in plastic pots. Seven to ten days after germination, the plants were treated with the active ingredient to which a surfactant had been added by spraying the plants until they were wet with various concentrations.

[26] = tested on: harber barley; assay: Growth regulation of barley (Table X)
Source text: Table X, below, summarizes observations made when the compound of Example Number 3 was applied to harber barley.

[27] = tested on: grain sorghum; assay: Growth regulation of grain sorghum (Table IX); conditions: 250 ppm
Source text: The compound of Example Number 3 was also applied to four-week old grain sorghum at a rate of 250 ppm.

[28] = time of treatment 42 days, 10 ppm, 3 weeks after treatment
[29] = time of treatment 42 days, 50 ppm, 3 weeks after treatment
[30] = time of treatment 42 days, 250 ppm, 3 weeks after treatment

## COC(=O)c1ccccc1-c1cc(-c2cccc(C(F)(F)F)c2)no1 [Example 3, Methyl 2-[3-[3-(Trifluoromethyl)-Phenyl]-5-Isoxazolyl]Benzoate]
[1]; 2 WAT, 11.2 kg/h
  herbicidal rating: 2 (50-74)
[1]; 4 WAT, 1.12 kg/h
  herbicidal rating: 1 (25-49)
[1]; 4 WAT, 5.60 kg/h
  herbicidal rating: 2 (50-74)
[2]
  herbicidal rating: 3 (75-100)
[3]; 2 WAT, 11.2 kg/h
  herbicidal rating: 3 (75-100)
[3]; 4 WAT, 1.12 kg/h
  herbicidal rating: 3 (75-100)
[3]; 4 WAT, 5.60 kg/h
  herbicidal rating: 3 (75-100)
[4]; 2 WAT, 11.2 kg/h
  herbicidal rating: 2 (50-74)
[4]; 4 WAT, 1.12 kg/h
  herbicidal rating: 1 (25-49)
[4]; 4 WAT, 5.60 kg/h
  herbicidal rating: 2 (50-74)
[5]
  herbicidal rating: 3 (75-100)
[6]; 2 WAT, 11.2 kg/h
  herbicidal rating: 3 (75-100)
[6]; 4 WAT, 1.12 kg/h
  herbicidal rating: 3 (75-100)
[6]; 4 WAT, 5.60 kg/h
  herbicidal rating: 3 (75-100)
[7]; 2 WAT, 11.2 kg/h
  herbicidal rating: 2 (50-74)
[7]; 4 WAT, 1.12 kg/h
  herbicidal rating: 1 (25-49)
[7]; 4 WAT, 5.60 kg/h
  herbicidal rating: 2 (50-74)
[8]
  herbicidal rating: 2 (50-74)
[9]; 2 WAT, 11.2 kg/h
  herbicidal rating: 2 (50-74)
[9]; 4 WAT, 1.12 kg/h
  herbicidal rating: 2 (50-74)
[9]; 4 WAT, 5.60 kg/h
  herbicidal rating: 3 (75-100)
[10]
  herbicidal rating: 2 (50-74)
[11]; 2 WAT, 11.2 kg/h
  herbicidal rating: 3 (75-100)
[11]; 4 WAT, 1.12 kg/h
  herbicidal rating: 1 (25-49)
[11]; 4 WAT, 5.60 kg/h
  herbicidal rating: 2 (50-74)
[12]
  Observations compared with the control: stature reduction and tillering
[13]; 2 WAT, 1.12 kg/h
  herbicidal rating: 1 (25-49)
[13]; 4 WAT, 5.60 kg/h
  herbicidal rating: 1 (25-49)
[13]; 4 WAT, 11.2 kg/h
  herbicidal rating: 2 (50-74)
[14]
  herbicidal rating: 2 (50-74)
[15]; 2 WAT, 1.12 kg/h
  herbicidal rating: 1 (25-49)
[15]; 4 WAT, 5.60 kg/h
  herbicidal rating: 1 (25-49)
[15]; 4 WAT, 11.2 kg/h
  herbicidal rating: 4 (100)
[16]; 2 WAT, 1.12 kg/h
  herbicidal rating: 1 (25-49)
[16]; 4 WAT, 5.60 kg/h
  herbicidal rating: 1 (25-49)
[16]; 4 WAT, 11.2 kg/h
  herbicidal rating: 2 (50-74)
[17]
  herbicidal rating: 3 (75-99)
[18]; 2 WAT, 1.12 kg/h
  herbicidal rating: 0 (0-24)
[18]; 4 WAT, 5.60 kg/h
  herbicidal rating: 0 (0-24)
[18]; 4 WAT, 11.2 kg/h
  herbicidal rating: 3 (75-99)
[19]; 2 WAT, 1.12 kg/h
  herbicidal rating: 0 (0-24)
[19]; 4 WAT, 5.60 kg/h
  herbicidal rating: 0 (0-24)
[19]; 4 WAT, 11.2 kg/h
  herbicidal rating: 2 (50-74)
[20]
  herbicidal rating: 0 (0-24)
[21]; 2 WAT, 1.12 kg/h
  herbicidal rating: 1 (25-49)
[21]; 4 WAT, 5.60 kg/h
  herbicidal rating: 1 (25-49)
[21]; 4 WAT, 11.2 kg/h
  herbicidal rating: 2 (50-74)
[22]
  herbicidal rating: 2 (50-74)
[23]; 2 WAT, 1.12 kg/h
  herbicidal rating: 1 (25-49)
[23]; 4 WAT, 5.60 kg/h
  herbicidal rating: 1 (25-49)
[23]; 4 WAT, 11.2 kg/h
  herbicidal rating: 4 (100)
[24]; time of treatment 15 days, 250 ppm, 3 weeks after treatment
  Plant Height: 80 % of Control
[24]; time of treatment 15 days, 250 ppm, 6 weeks after treatment
  Plant Height: 93 % of Control
[24]; [28]
  Plant Height: 113 % of Control
[24]; [29]
  Plant Height: 112 % of Control
[24]; [30]
  Plant Height: 109 % of Control
[25]; 10 ppm, 3 weeks after treatment
  Height: 102 % of Control
[25]; 10 ppm, 9 weeks after treatment
  Height: 93 % of Control
[25]; 50 ppm, 3 weeks after treatment
  Height: 94 % of Control
[25]; 50 ppm, 9 weeks after treatment
  Height: 86 % of Control
[25]; 250 ppm, 3 weeks after treatment
  Height: 66 % of Control
[25]; 250 ppm, 9 weeks after treatment
  Height: 57 % of Control
[26]; time of treatment 16 days, 250 ppm, 3 weeks after treatment
  Plant Height: 90 % of Control
[26]; time of treatment 16 days, 250 ppm, 6 weeks after treatment
  Plant Height: 97 % of Control
[26]; [28]
  Plant Height: 93 % of Control
[26]; [29]
  Plant Height: 106 % of Control
[26]; [30]
  Plant Height: 90 % of Control
[27]; 3 weeks after treatment
  Plant Height: 91 % of Control
[27]; 7 weeks after treatment
  Other Observations: Necrosis.
  Plant Height: 81 % of Control
